Patent US8715735B2, “Stabilised supersaturated solids of lipophilic drugs” (Bayer Intellectual Property GmbH, priority 2004, dated 2014)

Key:
[1] = Saturation concentration of estradiol valerate in solvent at room temperature; assay type: physicochemical
Method: The resulting liquid is mixed with 1000 g Aeroperl® 300 to give a powder with homogeneously absorbed liquid. 24 mg of the described stabilised supersaturated formulation contains 1 mg estradiol valerate. […] The resulting liquid is mixed with 1667 g Aeroperl® 300 to give a powder with homogeneously absorbed liquid. 67 mg of the described stabilised supersaturated formulation contains 1 mg estradiol valerate. […] The resulting liquid is mixed with 1000 g Aeroperl® 300 to give a powder with homogeneously absorbed liquid. 44 mg of the described stabilised supersaturated formulation contains 1 mg estradiol valerate.

[2] = In-vitro dissolution test, USP XXVIII paddle apparatus 2, 0.4% aqueous sodium dodecyl sulfate; assay type: physicochemical; conditions: approx. 1 mg estradiol valerate tested, 1000 mL 0.4% SDS, 37° C., 75 rpm
Method: Formulations according to the examples 1 to 4 were investigated in an in-vitro dissolution test according to USP XXVIII Paddle apparatus 2 using 1000 mL of an 0.4% aqueous solution of sodium dodecyl sulfate as dissolution medium to ensure sink condition (37° C., 75 rpm). The amount of formulations to be tested was selected so that the composition contains approx. 1 mg of estradiol valerate. As reference, 1 mg unformulated estradiol valerate was investigated.

Compound: CCCCC(=O)O[C@H]1CC[C@H]2[C@@H]3CCc4cc(O)ccc4[C@H]3CC[C@]12C [estradiol valerate]
- saturation concentration ([1]; in medium chain triglycerides (MCT) at room temperature): approx. 27 g/L
- saturation concentration ([1]; in peanut oil at room temperature): approx. 30 g/L
- saturation concentration ([1]; in polyethylene glycol (PEG) 400 at room temperature): approx. 50 g/L
- Release estradiol valerate, 3 min ([2]; 3 min): 0.34 mg
- Release estradiol valerate, 6 min ([2]; 6 min): 0.41 mg
- Release estradiol valerate, 10 min ([2]; 10 min): 0.47 mg
- Release estradiol valerate, 15 min ([2]; 15 min): 0.67 mg
- Release estradiol valerate, 30 min ([2]; 30 min): 0.76 mg
